The source of these data is paper PMC5603267 (Cell metabolism, 2017).

Test [1] addresses acetyl-CoA carboxylase 1 (ACC1) (Homo sapiens, UniProt Q13085). The experiment in a line: purified ACC incubated with MK-4074, ATP, acetyl-CoA and NaH14CO3. The format is biochemical.
Test [2] has as its target acetyl-CoA carboxylase 2 (ACC2) (Homo sapiens, UniProt O00763). The test is described as above. The format is biochemical.

Chain of acetyl-CoA carboxylase 2 (ACC2) (O00763 whole entry): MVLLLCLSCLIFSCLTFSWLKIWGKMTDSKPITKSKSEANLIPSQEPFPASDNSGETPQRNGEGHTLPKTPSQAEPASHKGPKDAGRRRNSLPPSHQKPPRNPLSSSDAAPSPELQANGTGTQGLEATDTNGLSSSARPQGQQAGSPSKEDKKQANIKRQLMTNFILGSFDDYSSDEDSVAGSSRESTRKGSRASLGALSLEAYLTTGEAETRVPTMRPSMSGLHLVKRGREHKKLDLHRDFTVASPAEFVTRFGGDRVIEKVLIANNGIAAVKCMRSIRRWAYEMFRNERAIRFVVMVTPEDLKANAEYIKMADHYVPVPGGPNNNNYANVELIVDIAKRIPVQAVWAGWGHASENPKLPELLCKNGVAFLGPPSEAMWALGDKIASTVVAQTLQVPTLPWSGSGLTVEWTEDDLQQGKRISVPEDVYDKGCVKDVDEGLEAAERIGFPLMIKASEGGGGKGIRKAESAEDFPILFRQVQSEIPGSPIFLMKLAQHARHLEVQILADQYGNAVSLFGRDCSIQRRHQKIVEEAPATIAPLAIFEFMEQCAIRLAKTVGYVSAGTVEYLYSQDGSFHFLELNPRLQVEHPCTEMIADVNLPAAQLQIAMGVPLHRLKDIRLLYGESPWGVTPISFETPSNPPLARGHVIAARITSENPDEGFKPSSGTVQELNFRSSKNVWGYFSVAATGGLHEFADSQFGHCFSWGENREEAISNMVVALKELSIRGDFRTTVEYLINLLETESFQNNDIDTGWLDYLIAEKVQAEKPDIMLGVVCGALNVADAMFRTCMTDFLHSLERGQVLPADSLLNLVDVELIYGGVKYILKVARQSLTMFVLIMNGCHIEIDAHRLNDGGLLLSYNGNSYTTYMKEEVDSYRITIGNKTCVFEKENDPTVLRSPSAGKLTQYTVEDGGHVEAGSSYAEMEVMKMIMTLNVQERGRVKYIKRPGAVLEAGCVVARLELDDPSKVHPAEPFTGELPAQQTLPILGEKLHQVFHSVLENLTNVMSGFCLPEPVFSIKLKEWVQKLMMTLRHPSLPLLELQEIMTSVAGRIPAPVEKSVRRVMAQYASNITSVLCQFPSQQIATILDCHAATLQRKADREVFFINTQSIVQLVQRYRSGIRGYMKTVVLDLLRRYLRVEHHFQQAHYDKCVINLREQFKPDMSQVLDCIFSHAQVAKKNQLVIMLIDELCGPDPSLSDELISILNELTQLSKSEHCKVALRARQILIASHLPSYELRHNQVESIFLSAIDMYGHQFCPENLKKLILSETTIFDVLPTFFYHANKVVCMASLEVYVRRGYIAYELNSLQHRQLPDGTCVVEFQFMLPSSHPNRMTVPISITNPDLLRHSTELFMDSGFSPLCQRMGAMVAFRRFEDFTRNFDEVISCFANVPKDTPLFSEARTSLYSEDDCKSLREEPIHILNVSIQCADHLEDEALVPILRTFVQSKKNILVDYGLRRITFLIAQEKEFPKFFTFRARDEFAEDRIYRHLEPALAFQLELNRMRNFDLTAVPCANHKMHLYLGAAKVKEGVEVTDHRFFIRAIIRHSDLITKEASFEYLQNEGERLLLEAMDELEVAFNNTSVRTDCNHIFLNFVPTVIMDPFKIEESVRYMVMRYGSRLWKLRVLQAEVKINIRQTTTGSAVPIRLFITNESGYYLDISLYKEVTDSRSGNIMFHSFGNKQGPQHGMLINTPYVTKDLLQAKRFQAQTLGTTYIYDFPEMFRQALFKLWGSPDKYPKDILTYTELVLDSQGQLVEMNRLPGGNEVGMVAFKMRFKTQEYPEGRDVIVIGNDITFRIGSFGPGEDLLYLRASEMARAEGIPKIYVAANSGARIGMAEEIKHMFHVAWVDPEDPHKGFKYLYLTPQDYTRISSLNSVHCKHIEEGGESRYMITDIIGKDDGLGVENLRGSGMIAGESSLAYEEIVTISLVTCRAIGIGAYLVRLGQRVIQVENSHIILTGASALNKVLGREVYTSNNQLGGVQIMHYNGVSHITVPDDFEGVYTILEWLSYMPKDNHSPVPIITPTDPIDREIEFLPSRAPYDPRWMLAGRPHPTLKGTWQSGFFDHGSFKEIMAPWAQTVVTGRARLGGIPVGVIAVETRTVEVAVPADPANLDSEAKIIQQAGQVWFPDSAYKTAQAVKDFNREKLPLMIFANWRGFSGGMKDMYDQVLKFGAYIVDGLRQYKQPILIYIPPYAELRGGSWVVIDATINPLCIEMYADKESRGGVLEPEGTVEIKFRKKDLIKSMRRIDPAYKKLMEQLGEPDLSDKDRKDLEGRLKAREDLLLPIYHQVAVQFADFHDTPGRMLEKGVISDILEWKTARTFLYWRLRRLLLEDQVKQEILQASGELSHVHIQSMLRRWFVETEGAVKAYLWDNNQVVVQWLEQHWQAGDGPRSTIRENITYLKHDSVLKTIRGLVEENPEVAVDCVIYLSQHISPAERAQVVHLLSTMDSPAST

For the compound `COc1cc(C(=O)N2CCC3(CC2)CC(=O)c2cc(-c4cncc(C(=O)O)c4)ccc2O3)cc2c1c(C)cn2C1CC1` [MK-4074], the IC50 in test [1] and in test [2] was around 3 nM throughout.
